# Measured values as given in patent US20230399321A1, “CRYSTALLINE FORM II OF MELANOCORTIN RECEPTOR AGONIST COMPOUND AND PREPARATION METHOD THEREFOR” (LG CHEM, LTD., priority 2020, published 2023).
# Where a name gives a salt, the structure may show the parent alone.
# How the values were obtained:
# [1] = Stability assessment by HPLC after storage; assay type: physicochemical; details: for HPLC analysis result, Open ACC: open state, accelerated condition (40° C., 75% RH); for HPLC analysis result, Open ACC / HPLC analysis result, Closed STR: in % (unit assumed); for HPLC analysis result, Closed STR: sealed state, harsh condition, oven at 80° C.
# Procedure: About 10-30 mg of the sample was stored for 4 weeks in an open state under the accelerated condition (40° C., 75% RH) or in a sealed state under the harsh condition in an oven at 80° C.
# [2] = Thermogravimetric analysis (TGA); assay type: physicochemical; details: heated from 30° C. to 350° C. at 10° C./min; no weight loss in the DSC endothermic section
# Procedure: The TGA was measured using Mettler Toledo TGA/DSC 1 module. About 4-8 mg of the sample is weighed and put into a 100 μL Al crucible (flat-bottomed aluminum crucibles). Then, TGA measurement is performed while the sample is heated from 30° C. to 350° C. at a rate of 10° C./min. During the measurement, nitrogen gas is supplied to the inside of the instrument at a rate of 80 mL/min to prevent the inflow of oxygen and other gases. Data collection and evaluation were performed using the software STARe.
compound,measurement,setting,value
"CC(C)C(=O)N([C@H]1C[C@@H](C(=O)N2CCOCC2)N(C(=O)[C@@H]2CN(C(C)(C)C)C[C@H]2c2ccc(Cl)cc2)C1)[C@H]1CC[C@@H](C)CC1 [Example 1, N-((3S,5S)-1-((3S,4R)-1-(tert-butyl)-4-(4-chlorophenyl)pyrrolidine-3-carbonyl)-5-(morpholine-4-carbonyl)pyrrolidin-3-yl)-N-((1s,4R)-4-methylcyclohexyl) isobutyramide hydrochloride]",chemical stability to heat and humidity,"[1]; 4 weeks under the accelerated condition (40° C., 75% RH) and the harsh condition (80° C.)",showed chemical stability for 4 weeks
same,"HPLC analysis result, Open ACC",[1]; Week 2,97.67
same,"HPLC analysis result, Closed STR",[1]; Week 2,97.73
same,"HPLC analysis result, Open ACC",[1]; Week 4,97.82
same,"HPLC analysis result, Closed STR",[1]; Week 4,97.94
same,"HPLC analysis result, Initial","[1]; initial, before storage",97.7%
same,thermal stability,[2],thermally stable crystalline form
